Results reported in PMC8533485 (Biomedicines, 2021).
Read-outs that look alike come from different tables or passages of the source.

Legend:
[1] = ref [6],[7],[8]; cited from earlier work
[2] = test system: staphylococci and streptococci; assay: PK/PD evaluation: observed PK versus EUCAST breakpoint MIC, adjusted by 93% protein binding; settings: MIC 0.125 mg/L
Protocol: (§1) T > MIC was calculated based on the terminal t1/2 for each patient as a possible marker of the long-term prophylactic effect.

[3] = test system: plasma proteins (mainly albumin); settings: cited from earlier work
[4] = test system: staphylococci and streptococci; settings: in vivo
Protocol: as §1

[5] = in vivo
[6] = test system: plasma proteins (mainly albumin); settings: cited from earlier work; remark: listed apart in the source
From the text: Currently, off-label use at high dosages for osteoarticular infections deserves attention. […] AUC0-1w/MIC and, partic ...

clinical = settings: human, in vivo, iv
MSSA = assay: Vancomycin MIC of patient isolates by ETEST; assay type: cell-based, Staphylococcus aureus; settings: isolates of individual patients
MRSA = assay: Vancomycin MIC of patient isolates by ETEST; assay type: cell-based, Staphylococcus aureus; settings: isolates of individual patients

Structure (SMILES) | half-life (t1/2) [1] | median AUC0-2w/MIC ratio ([2]; dual dose regimen) | median AUC0-2w/MIC ratio ([2]; single dose regimen) | binding to plasma proteins [3] [%] | AUC0-2w/MIC adjusted by 93% protein binding, all patients ([4]; human) | AUC0-2w/MIC relative to previously suggested cut-off of 1000 (for staphylococci) [4] | T > MIC in all patients [4] | t1/2 reached in multiphasic profile [5] | binding to plasma proteins [6] [%] | half-life (clinical) [days] | half-life (clinical; 1500 mg) [days] | Cmax (clinical; 1500 mg, C max) [µg/mL] | MIC for Vancom. (MSSA) [µg/mL] | MIC for Vancom. (MRSA) [µg/mL]
CN[C@H]1C(=O)N[C@@H]2Cc3ccc(cc3)Oc3cc4cc(c3O[C@@H]3O[C@H](C(=O)O)[C@@H](O)[C@H](O)[C@H]3NC(=O)CCCCCCCCC(C)C)Oc3ccc(cc3Cl)[C@@H](O)[C@@H]3NC(=O)[C@H](NC(=O)[C@@H]4NC(=O)[C@@H](NC2=O)c2cc(cc(O)c2Cl)Oc2cc1ccc2O)c1ccc(O)c(c1)-c1c(O[C@H]2O[C@H](CO)[C@@H](O)[C@H](O)[C@@H]2O)cc(O)cc1[C@@H](C(=O)NCCCN(C)C)NC3=O [DBV, Dalbavancin] | around 9 days | 31,366 | 20,590 | ~98 | higher than 17,000 | at least 8 folds | higher than 6 weeks | higher than 500 h | 93 | 26.1 | 21.9 | 390 |  | 
CN[C@H](CC(C)C)C(=O)N[C@H]1C(=O)N[C@@H](CC(N)=O)C(=O)N[C@H]2C(=O)N[C@H]3C(=O)N[C@H](C(=O)N[C@H](C(=O)O)c4cc(O)cc(O)c4-c4cc3ccc4O)[C@H](O)c3ccc(c(Cl)c3)Oc3cc2cc(c3O[C@@H]2O[C@H](CO)[C@@H](O)[C@H](O)[C@H]2O[C@H]2C[C@](C)(N)[C@H](O)[C@H](C)O2)Oc2ccc(cc2Cl)[C@H]1O [Vancomycin, vancomycin] |  |  |  |  |  |  |  |  |  |  |  |  | ≤0.5 | 1
